Assay results as given in patent publication US8716226B2, “3,5 phenyl-substituted beta amino acid derivatives as integrin antagonists” (Saint Louis University, priority 2012, dated 2014).

Tests used:
[1] = target: T1, αvβ6 (Homo sapiens, UniProt P06756+P18564); assay: HT-29 cell adhesion assay for αvβ6 function; format: cell-based; settings: HT-29 cells, adhesion to human LAP
T1 construct: HT-29 cells (American Type Culture Collection, Manassas, Va.), which naturally express αvβ6; endogenous in cells; host or cells: HT-29 (human colon adenocarcinoma, ATCC)
T1 sequence (P06756 31-889 limits assumed): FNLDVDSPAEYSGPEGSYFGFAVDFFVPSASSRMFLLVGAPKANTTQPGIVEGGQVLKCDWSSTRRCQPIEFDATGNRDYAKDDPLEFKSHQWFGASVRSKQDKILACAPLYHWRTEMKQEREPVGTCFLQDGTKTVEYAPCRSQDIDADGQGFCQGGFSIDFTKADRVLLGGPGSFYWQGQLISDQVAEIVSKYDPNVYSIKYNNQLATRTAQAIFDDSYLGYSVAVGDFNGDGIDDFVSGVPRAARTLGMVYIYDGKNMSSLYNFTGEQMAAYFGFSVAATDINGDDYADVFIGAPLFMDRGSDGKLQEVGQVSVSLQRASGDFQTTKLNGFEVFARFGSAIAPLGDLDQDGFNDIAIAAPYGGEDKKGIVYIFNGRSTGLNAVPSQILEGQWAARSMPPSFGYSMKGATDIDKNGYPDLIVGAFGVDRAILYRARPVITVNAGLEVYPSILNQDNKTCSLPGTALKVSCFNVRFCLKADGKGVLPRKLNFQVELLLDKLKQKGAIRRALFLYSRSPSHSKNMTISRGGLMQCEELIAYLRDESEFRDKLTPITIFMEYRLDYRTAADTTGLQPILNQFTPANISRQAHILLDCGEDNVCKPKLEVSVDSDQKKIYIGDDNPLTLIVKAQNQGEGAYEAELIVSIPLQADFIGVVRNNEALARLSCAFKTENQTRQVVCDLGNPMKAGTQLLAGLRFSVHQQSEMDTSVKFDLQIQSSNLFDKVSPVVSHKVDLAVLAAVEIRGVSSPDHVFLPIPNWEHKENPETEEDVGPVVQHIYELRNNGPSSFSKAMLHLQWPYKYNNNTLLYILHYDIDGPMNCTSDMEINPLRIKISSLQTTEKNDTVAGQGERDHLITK
T1 sequence (P06756 891-1048 partner limits assumed): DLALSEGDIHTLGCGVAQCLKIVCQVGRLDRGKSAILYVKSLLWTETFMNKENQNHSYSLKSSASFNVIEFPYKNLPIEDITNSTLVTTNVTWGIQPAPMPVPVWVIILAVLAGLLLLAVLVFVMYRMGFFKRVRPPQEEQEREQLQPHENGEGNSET
T1 sequence (P18564 22-788): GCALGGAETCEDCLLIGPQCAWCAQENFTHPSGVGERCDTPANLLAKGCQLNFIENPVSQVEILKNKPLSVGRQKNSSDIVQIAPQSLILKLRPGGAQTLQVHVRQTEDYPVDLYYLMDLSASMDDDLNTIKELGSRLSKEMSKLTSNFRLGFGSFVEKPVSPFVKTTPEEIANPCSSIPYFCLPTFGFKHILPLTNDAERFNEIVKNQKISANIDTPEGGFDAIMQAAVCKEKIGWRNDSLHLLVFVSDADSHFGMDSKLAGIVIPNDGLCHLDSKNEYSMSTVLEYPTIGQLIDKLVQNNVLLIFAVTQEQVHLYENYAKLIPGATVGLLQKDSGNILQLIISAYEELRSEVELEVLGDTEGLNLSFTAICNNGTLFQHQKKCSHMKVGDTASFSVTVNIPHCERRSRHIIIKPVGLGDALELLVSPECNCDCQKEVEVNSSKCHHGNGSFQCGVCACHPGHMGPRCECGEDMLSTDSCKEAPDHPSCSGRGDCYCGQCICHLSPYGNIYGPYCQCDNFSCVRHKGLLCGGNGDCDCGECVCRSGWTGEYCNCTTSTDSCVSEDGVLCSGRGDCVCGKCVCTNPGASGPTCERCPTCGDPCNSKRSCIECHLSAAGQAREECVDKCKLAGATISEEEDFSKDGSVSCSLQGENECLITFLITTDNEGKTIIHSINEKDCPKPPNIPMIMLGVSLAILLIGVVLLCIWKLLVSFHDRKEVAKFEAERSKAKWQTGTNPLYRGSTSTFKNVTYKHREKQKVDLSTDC
Procedure: HT-29 Cell Adhesion Assay for αvβ6 Function.
(§1) Purified human LAP protein (R&D Systems, Inc) diluted to 0.2 μg/ml in TS buffer (25 mM Tris 7.4, 150 mM NaCl) was added to wells (100 μl/well) of a 96-well microtiter plate (Immulon 2HB 96-well; VWR Scientific) and incubated overnight at 4° C. The solution in each well was then replaced with 200 μl of blocking buffer (TS with 1% bovine serum albumin), and the plate incubated for 1 hr at 37° C. Compounds were diluted in test tubes to 2× the peak testing concentration in cell adhesion buffer consisting of Hanks Buffered Salts Solution (HBSS, cation-free, Sigma), 0.1% bovine serum albumin, 25 mM HEPES, and 200 μM MnCl2. […] The cells were washed with the cell adhesion buffer, counted using a hemocytometer, centrifuged and resuspended in cell adhesion buffer at 4×10^6 cells/ml. […] Remaining attached cells were detected by addition of 100 μl/well p-nitrophenylphosphate (Sigma) solution (15 mg tablet dissolved in 25 ml 50 mM NaAcetate, pH5; 0.5% Triton-X-100), incubation for 30 min at 37° C., and then addition of 50 μl/well 1N NaOH to stop the enzyme reaction. Plates were read by colorimetric detection at 405 nm wavelength using a Tecan Safire II plate reader. Concentration-response curves were constructed by non-linear regression (best fit) analysis, and IC50 values were calculated for each compound. […]

[2] = target: T2, αvβ5 (Homo sapiens, UniProt P06756+P18084); assay: 293/b5 cell adhesion assay for αvβ5 function; format: cell-based; settings: 293/b5 cells, adhesion to human vitronectin
T2 construct: expressed in transfected cells; host or cells: HEK 293 (293/b5)
T2 sequence (P06756 31-889 limits assumed): as the sequence (P06756 31-889 limits assumed) above
T2 sequence (P06756 891-1048 partner limits assumed): as the sequence (P06756 891-1048 partner limits assumed) above
T2 sequence (P18084 24-799): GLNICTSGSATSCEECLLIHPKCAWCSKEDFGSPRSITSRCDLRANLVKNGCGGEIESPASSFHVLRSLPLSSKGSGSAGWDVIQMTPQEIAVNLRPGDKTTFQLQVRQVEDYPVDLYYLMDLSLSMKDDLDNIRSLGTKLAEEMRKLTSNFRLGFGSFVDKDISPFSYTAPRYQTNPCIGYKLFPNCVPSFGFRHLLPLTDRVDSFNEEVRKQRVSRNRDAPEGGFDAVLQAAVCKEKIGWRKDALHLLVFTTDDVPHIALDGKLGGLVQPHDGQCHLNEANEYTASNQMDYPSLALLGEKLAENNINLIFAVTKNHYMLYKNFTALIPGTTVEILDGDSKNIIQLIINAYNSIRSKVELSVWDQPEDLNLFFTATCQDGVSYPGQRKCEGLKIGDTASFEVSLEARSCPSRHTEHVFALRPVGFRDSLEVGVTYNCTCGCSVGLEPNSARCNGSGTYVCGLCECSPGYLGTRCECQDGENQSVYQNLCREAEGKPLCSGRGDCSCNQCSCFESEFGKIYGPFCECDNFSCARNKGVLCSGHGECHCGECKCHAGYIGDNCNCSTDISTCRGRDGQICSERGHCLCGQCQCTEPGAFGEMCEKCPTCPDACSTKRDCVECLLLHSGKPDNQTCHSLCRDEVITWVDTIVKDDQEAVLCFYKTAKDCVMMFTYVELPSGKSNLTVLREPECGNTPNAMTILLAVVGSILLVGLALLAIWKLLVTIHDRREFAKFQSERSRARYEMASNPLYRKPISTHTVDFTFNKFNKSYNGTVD
Procedure: 293/b5 Cell Adhesion Assay for αvβ5 Function.
as §1, with “vitronectin (Calbiochem/EMD Biosciences)” for “LAP protein (R&D Systems, Inc)”, “0.25” for “0.2”, “3×10^6” for “4×10^6”

## CC(C)(C)c1cc(Br)cc([C@H](CC(=O)O)NC(=O)CNC(=O)c2cc(O)cc(NC3=NCC(O)CN3)c2)c1 (stereo partly drawn) [Example 1, (3S)—N-[3-hydroxy-5-[(1,4,5,6-tetrahydro-5-hydroxy-2-pyrimidinyl)amino]benzoyl]glycyl-3-(3-bromo-5-tert-butylphenyl)-β-alanine]
[1]
  IC50: 1.5 nM
[2]
  IC50: 51.7 nM
